Here are results for two compounds from ChEMBL document CHEMBL5678818, “Discovery of potent SOS1 inhibitors that block RAS activation via disruption of the RAS-SOS1 interaction” (Proc Natl Acad Sci U S A, 2019).

Test [1] deals with T1, Son of sevenless homolog 1 (Homo sapiens, UniProt Q07889).
T1 sequence (Q07889 whole entry): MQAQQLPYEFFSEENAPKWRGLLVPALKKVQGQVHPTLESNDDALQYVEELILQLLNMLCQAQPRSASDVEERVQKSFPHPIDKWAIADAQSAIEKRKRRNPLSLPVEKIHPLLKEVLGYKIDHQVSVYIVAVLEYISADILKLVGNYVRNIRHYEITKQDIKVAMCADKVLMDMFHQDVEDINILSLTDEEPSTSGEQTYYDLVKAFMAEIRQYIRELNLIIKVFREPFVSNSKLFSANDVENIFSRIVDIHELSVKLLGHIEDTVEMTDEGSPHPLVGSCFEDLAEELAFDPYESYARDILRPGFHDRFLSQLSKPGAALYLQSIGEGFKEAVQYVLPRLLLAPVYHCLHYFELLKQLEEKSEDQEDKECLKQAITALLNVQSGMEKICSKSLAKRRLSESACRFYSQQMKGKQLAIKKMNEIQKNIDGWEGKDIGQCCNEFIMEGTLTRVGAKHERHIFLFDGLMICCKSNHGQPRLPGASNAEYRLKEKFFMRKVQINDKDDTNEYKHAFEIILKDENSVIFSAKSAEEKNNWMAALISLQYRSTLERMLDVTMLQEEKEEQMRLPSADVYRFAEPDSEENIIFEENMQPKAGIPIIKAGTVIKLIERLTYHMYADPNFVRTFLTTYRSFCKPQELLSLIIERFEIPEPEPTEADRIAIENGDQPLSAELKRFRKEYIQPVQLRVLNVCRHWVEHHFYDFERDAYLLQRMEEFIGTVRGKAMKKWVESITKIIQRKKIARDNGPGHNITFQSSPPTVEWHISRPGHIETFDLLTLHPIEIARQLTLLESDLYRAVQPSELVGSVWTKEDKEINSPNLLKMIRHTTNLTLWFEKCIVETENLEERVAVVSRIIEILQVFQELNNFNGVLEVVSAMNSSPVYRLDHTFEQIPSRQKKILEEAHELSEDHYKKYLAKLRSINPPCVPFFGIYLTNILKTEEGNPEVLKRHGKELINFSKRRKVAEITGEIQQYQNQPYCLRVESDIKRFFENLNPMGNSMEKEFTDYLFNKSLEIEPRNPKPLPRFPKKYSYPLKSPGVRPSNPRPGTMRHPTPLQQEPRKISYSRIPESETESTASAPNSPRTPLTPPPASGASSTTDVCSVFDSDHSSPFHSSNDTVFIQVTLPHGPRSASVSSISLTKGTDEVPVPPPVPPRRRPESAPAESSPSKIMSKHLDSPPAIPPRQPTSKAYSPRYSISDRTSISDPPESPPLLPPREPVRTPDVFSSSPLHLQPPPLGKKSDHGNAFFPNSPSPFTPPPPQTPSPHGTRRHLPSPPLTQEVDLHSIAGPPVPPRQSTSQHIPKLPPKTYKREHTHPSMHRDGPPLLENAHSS
Kind of test: Inhibition of SOS1 in human Calu-1 cells assessed as reduction in RAS activation pretreated for 30 mins followed by EGF stimulation for 3 mins by G-LISA analysis. The format is cell-based.

Test [2] has as its system Proto-oncogene tyrosine-protein kinase receptor Ret (Homo sapiens), P07949 [V804M]. Kind of test: Inhibition of RET V804M mutant (unknown origin) assessed as residual activity at 100 nM by KINOMEscan analysis relative to control.
Test [3] deals with T2, Tyrosine-protein kinase Mer (Homo sapiens) (UniProt Q12866).
T2 sequence (whole entry): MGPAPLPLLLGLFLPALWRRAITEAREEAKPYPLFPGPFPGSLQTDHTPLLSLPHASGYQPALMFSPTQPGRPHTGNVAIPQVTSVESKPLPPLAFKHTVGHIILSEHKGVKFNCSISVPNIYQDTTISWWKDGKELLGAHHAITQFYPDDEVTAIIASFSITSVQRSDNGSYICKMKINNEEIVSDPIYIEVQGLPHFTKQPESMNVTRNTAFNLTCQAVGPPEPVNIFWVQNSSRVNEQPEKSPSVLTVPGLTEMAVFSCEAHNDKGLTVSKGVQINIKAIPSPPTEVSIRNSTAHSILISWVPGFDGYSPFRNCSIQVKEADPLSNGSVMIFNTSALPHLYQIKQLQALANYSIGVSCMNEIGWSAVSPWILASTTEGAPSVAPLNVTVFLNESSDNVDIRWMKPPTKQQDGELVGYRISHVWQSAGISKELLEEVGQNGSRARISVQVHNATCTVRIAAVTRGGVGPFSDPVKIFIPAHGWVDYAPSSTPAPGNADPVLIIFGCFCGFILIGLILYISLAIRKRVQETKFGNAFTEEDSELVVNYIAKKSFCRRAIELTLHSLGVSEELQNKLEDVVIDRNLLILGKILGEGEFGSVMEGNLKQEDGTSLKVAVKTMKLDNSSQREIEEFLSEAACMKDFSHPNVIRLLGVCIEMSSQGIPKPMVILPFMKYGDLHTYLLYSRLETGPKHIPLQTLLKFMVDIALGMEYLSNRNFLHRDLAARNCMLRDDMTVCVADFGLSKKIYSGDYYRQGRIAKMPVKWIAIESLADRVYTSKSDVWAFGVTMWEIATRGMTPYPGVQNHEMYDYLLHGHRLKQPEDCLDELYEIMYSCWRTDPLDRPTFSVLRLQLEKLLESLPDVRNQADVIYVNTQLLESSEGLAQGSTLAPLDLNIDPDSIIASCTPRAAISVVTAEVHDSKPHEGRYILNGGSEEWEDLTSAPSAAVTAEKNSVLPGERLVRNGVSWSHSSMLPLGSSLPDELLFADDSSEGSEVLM
Kind of test: Inhibition of MERTK (unknown origin) assessed as residual activity at 100 nM by KINOMEscan analysis relative to control.

Test [4] relates to Epidermal growth factor receptor (Homo sapiens), P00533 [L858R]. Nature of the test: Inhibition of EGFR L858R mutant (unknown origin) assessed as residual activity at 100 nM by KINOMEscan analysis relative to control.
In test [5] the target is Death-associated protein kinase 1 (Homo sapiens) (UniProt P53355). Kind of test: Inhibition of DAPK1 (unknown origin) assessed as residual activity at 100 nM by KINOMEscan analysis relative to control.
Death-associated protein kinase 1 (Homo sapiens), sequence (P53355 whole entry, looked up): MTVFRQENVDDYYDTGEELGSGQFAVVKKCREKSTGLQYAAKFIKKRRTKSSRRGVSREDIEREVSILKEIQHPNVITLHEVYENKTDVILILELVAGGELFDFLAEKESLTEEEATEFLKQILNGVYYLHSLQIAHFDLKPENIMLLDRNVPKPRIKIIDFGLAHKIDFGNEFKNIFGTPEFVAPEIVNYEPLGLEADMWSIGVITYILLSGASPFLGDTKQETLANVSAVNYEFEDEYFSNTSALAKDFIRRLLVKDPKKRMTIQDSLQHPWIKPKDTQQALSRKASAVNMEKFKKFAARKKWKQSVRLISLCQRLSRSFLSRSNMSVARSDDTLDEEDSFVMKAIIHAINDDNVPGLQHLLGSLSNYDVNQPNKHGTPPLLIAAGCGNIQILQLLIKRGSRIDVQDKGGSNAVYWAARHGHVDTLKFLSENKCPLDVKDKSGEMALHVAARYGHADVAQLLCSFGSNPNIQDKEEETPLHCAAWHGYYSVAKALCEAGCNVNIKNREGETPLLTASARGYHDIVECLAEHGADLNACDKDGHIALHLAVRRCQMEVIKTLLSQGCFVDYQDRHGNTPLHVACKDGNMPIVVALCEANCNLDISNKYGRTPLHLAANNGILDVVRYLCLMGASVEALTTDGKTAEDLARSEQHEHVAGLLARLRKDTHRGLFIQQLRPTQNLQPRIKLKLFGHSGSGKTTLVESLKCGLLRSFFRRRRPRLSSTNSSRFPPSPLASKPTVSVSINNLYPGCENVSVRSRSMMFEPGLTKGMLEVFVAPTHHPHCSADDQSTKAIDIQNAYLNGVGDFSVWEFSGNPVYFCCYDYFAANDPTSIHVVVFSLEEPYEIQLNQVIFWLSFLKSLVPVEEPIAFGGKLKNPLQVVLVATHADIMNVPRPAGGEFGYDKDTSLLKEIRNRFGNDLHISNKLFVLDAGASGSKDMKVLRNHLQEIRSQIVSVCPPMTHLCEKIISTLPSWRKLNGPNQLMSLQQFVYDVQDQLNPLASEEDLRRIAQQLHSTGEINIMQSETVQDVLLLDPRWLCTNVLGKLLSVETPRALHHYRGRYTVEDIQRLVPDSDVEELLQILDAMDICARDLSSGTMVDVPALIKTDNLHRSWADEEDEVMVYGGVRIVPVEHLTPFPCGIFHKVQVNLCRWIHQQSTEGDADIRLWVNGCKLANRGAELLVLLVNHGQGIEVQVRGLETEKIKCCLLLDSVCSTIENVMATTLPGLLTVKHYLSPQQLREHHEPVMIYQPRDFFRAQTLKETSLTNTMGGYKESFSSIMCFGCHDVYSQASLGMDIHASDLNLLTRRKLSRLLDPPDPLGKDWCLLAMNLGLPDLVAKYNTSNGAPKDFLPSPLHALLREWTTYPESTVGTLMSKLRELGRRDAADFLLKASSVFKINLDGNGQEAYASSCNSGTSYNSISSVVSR
Test [6] deals with Serine/threonine-protein kinase PAK 6 (Homo sapiens) (UniProt Q9NQU5). Kind of test: Inhibition of PAK6 (unknown origin) assessed as residual activity at 100 nM by KINOMEscan analysis relative to control.
Serine/threonine-protein kinase PAK 6 (Homo sapiens), sequence (Q9NQU5 whole entry, looked up): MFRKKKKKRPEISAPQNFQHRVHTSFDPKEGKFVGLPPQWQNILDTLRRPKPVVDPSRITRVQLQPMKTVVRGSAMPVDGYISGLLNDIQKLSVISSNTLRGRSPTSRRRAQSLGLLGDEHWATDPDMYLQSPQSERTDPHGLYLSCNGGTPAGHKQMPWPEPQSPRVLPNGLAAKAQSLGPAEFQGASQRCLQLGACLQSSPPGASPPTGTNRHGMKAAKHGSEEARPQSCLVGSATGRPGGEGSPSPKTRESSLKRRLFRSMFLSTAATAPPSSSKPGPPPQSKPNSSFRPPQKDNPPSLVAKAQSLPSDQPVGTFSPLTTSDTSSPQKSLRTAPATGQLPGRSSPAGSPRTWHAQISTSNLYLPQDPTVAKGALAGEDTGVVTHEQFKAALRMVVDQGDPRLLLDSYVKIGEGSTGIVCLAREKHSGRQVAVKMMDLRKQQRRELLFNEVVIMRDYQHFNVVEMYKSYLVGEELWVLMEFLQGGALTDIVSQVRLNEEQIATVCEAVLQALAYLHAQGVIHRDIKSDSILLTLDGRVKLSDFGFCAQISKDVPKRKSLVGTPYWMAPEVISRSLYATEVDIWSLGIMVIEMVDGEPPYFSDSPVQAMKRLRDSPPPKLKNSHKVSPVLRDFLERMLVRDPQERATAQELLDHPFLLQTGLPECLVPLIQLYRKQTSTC

Proto-oncogene tyrosine-protein kinase receptor Ret (Homo sapiens), P07949 [V804M], sequence (P07949 whole entry V804M): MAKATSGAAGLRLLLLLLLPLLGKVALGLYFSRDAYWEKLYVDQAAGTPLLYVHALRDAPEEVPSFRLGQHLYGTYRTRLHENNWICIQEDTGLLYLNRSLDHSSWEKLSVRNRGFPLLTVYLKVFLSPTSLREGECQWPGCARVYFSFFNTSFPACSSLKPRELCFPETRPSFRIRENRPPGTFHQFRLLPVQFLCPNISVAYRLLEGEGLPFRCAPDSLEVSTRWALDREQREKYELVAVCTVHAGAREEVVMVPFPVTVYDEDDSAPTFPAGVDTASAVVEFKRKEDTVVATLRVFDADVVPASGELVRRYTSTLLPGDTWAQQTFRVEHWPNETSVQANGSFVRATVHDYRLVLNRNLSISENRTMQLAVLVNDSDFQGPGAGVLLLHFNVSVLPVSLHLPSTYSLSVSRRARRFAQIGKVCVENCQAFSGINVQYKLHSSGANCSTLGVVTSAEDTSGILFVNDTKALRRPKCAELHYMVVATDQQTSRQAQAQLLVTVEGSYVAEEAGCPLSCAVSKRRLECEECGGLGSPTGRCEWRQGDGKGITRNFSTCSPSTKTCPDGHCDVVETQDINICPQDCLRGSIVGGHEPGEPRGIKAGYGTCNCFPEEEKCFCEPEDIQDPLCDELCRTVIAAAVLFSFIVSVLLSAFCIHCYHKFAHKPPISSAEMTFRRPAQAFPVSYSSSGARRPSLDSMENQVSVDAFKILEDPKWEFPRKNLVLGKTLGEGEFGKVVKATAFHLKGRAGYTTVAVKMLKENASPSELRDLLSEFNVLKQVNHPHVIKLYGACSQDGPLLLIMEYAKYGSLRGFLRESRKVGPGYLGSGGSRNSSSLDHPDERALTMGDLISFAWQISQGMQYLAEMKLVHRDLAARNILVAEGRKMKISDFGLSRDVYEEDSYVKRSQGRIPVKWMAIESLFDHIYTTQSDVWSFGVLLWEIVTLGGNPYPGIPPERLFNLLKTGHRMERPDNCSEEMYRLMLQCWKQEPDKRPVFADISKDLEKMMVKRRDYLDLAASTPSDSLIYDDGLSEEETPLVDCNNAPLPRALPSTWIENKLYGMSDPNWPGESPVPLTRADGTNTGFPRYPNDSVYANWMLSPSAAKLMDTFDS

In general, IC50 refers to the point on the concentration scale where inhibition reaches its midpoint. For the compound `COc1cc2nc(C)nc(NC(C)c3ccc(-c4cnc5n4CCC5)s3)c2cc1OC` (stereo unspecified), the IC50 in test [1] came out at 2000 nM.

On to `COc1cc2ncnc(N[C@H](C)c3cccc4ccccc34)c2cc1OC`, for which the Activity in test [2] came to 100%; in test [3] it was 97%; in test [4], 95%; in test [5], 100%; in test [6], 92%.
